Data set [1] has as its system Smoky-brown cockroaches. The settings on record: for insect pest-controlling effect (in words): summary of Tables 5 and 6. An excerpt:
(§1) Contents of the test are as follows.
(§2) 1. A test plot having a floor area of about 9 m^2 (270 cm in length×340 cm in width×15 cm in height) as shown in FIG. 5 was set in the interior of a room of 470 cm in length×540 cm in width. The powdery chemical agent spraying device 1 in which the cylindrical body 23 is connected directly with a pump P is placed in the center of a test plot floor face 100; corrugated boxes (A), (B), and (C) each imitating a gap between a kitchen sink and a refrigerator are arranged near one side of the test plot floor face 100 (lower portion in FIG. 5); and a bait 101 and water 103 are arranged near the other side of the test plot floor face 100 (upper portion in FIG. 5). 2. Smoky-brown cockroaches are released on the test plot floor face 100 and habituated in the corrugated boxes (A), (B), and (C), and thereafter, the powdery chemical agent 30 is sprayed from the powdery chemical agent spraying device 1 in which a discharge port of the pump P set up at a pressure of 100 kPa is connected directly with the cylindrical body 23. (Number of test insects: 49 females and 48 males for dinotefura and 50 females and 49 males for d.d-T-cyphenothrin) 3. […] 4. A knockdown (KD) rate and a mortality rate at every passage of a time based on the count number are calculated.
Device in which the discharge port of the pump (rolling pump, manufactured by Okenseiko Co., Ltd.; two pumps of Model Nos. P30C02R8516 and M42C02R8516 coupled with each other) P is connected directly with the cylindrical body 23 (In order to confirm a breaking pressure of each of the sealing films 25 and 27, a pressure gauge G is placed therebetween.)
Cylindrical body 23: The same as the cylindrical body 23 used in the measuring test of falling amount of chemical agent on floor face of Example 1.
Sealing films 25 and 27: The same as the sealing films 25 and 27 used in the measuring test of falling amount of chemical agent on floor face of Example 1.
(§3) Corrugated boxes (A) and (B): Two holes (2 cm×2 cm) through which the cockroach can come and go are opened in front of a corrugated box of 50 cm in length×50 cm in width×25 cm in height.
(§4) Corrugated box (C): The front and the rear of a corrugated box of 50 cm in length×50 cm in width×3 cm in height are fully opened.

The test system of data set [2] is Smoky-brown cockroaches.
Excerpt: as §1
as §2, with “FIG. 4” for “FIG. 5”, “1” for “1 in which the cylindrical body 23 is connected directly with a pump P”, “FIG. 4);” for “FIG. 5);”, “FIG. 4).” for “FIG. 5).”, “2. 28 females and 29 males of smoky-brown” for “2. Smoky-brown”, “device 1. […]” for “device 1 in which a discharge port of the pump P set up at a pressure of 100 kPa is connected directly with the cylindrical body 23. (Number of test insects: 49 females and 48 males for dinotefura and 50 females and 49 males for d.d-T-cyphenothrin)”
Container body 11: PET bottle having a capacity of 280 mL
Cylindrical body 23: Acrylic pipe having an inside diameter of 7 mm and a length of 50 mm
Sealing film 25: Parafilm (trade name: […] M, 4 inch×125 feet)
Sealing film 27: Parafilm (trade name: […] M, 4 inch×125 feet)
The Parafilm was wound around each end part of the cylindrical body 23 to prepare the sealing films 25 and 27, respectively.
The Parafilm was wound without being stretched and adjusted such that a pressure at the time of breaking of each of the sealing films 25 and 27 was 100 kPa.
Sodium bicarbonate 41: 3.8 g
as §3, §4

Read-outs that look alike come from different tables or passages of the source.

For the compound `CN/C(=N/CC1CCOC1)N[N+](=O)[O-]` (stereo not drawn) [Chemical agent B, dinotefuran], the KD and mortality is 3% in data set [1] (passage of time 2 hr); 59% in data set [1] (passage of time 14.5 hr); 71% in data set [1] (passage of time 16 hr); 82% in data set [1] (passage of time 23 hr); 96% in data set [1] (passage of time 43 hr); 96% in data set [1] (passage of time 48 hr). In addition, the KD and mortality stood at 2% in data set [1] (passage of time […]); 2% in data set [2] (passage of time 3 hr); 9% in data set [2] (passage of time 6 hr); 40% in data set [2] (passage of time 18 hr); 88% in data set [2] (passage of time 24 hr); 95% in data set [2] (passage of time 32 hr). This compound had a KD and mortality in data set [2] (passage of time 48 hr) of 96%. Moreover, the KD in data set [1] (passage of time 14.5 hr) is 43%; in data set [1] (passage of time 43 hr), 18%; in data set [1] (passage of time 48 hr) it was 15%; in data set [2] (passage of time 18 hr), 25%; in data set [2] (passage of time 32 hr), 9%; in data set [2] (passage of time 48 hr) it was 7%. For the same compound, in data set [1], the “insect pest-controlling effect (in words)” value was “a high effectiveness is obtained”.

For `CC(C)=CC1C(C(=O)OC(C#N)c2cccc(Oc3ccccc3)c2)C1(C)C` (stereo not drawn) [d.d-T-cyphenothrin], the “insect pest-controlling effect (in words)” value in data set [1] is reported as “a high insect pest-exterminating effect could be obtained”.

The values above are taken from patent publication US20150296765A1, “DEVICE FOR SPRAYING POWDERY CHEMICAL AGENT AND PROCESS FOR SPRAYING POWDERY CHEMICAL AGENT” (EARTH CHEMICAL CO., LTD., priority 2012, published 2015).
